# Measurements as given in US20060009448A1, “Metabolites of 4-(3,4-dichloro-phenyl)-2-[2-(4-methyl-piperazin-1-yl)-benzylidene]thiomorpholin-3-one” (Pfizer Inc., priority 2004, published 2006).
# Experiment: Percentages of plasma metabolites in human after oral administration of [14C]-Formula I (HPLC radioprofiling of pooled plasma)
# Assay type: in vivo
# Procedure: Six healthy male human subjects were administered a single 10 mg (free base) oral dose of 4-(3,4-dichloro-phenyl)-2-[2-(4-methyl-piperazin-1-yl)-benzylidene]-thiomorpholin-3-one containing 100 μCi of [^14C]-4-(3,4-dichloro-phenyl)-2-[2-(4-methyl-piperazin-1-yl)-benzylidene]-thiomorpholin-3-one (Lot# 49,800-103-1, specific activity 15.66 mCi/mmol, radiochemical purity >99%). [drawing 9]
# a). Blood sufficient to provide approximately 10 mL plasma for 4-(3,4-dichloro-phenyl)-2-[2-(4-methyl-piperazin-1-yl)-benzylidene]-thiomorpholin-3-one metabolite identification was collected in heparinized tubes at the following approximate times: 2, 8, 24, 48, 96, and 192 hours after drug administration. Samples were centrifuged at approximately 4° C. and the plasma was stored in appropriately labeled, screw-capped opaque polypropylene tubes at −20° C. until analysis.
# Plasma samples were pooled by human subject separately according to the method published by Raid, et al. (Raid, et al: Pharm. Res. (1991), 8(4), 541-543). Aliquots (1 mL) from each pool were extracted with 5 mL of acetonitrile. The mixtures were vortex-mixed for 3 minutes, sonicated for 30 minutes and then centrifuged for 7 minutes at 20° C. Aliquotes of the supernatant (2×500 μL) were counted to determine recovery. Approximately 95.1% of the radioactivity was recovered in the supernatants. The supernatants were combined according to subject number to two equal sets and dried in the Turbovap at room temperature. One set of the dried residue (six subjects) was reconstituted in 150 μL of 10 mM ammonium acetate (pH 4.0)/methanol/dimethyl sulfoxide (1.5:1.5:1) and aliquots of 100 μL were injected onto HPLC-Arc system for profiling. The other set of dried residues were combined and reconstituted in 300 μL of 10 mM ammonium acetate (pH 4.0)/methanol/dimethyl sulfoxide (1.5:1.5:1) and 90 μL was injected onto HPLC-MS/MS system for metabolite identification.
smiles,measurement,setting,value
CN1CCn2c(c(C3SCCN(c4ccc(Cl)c(Cl)c4)C3=O)c3ccccc32)C1 (stereo not shown) [Metabolite M10A],"% of Total Radioactivity in Plasma, Subject#1","human Subject#1, single 10 mg oral dose of [14C]-parent compound",60.6%
same,"% of Total Radioactivity in Plasma, Subject#2","human Subject#2, single 10 mg oral dose of [14C]-parent compound",57.6%
same,"% of Total Radioactivity in Plasma, Subject#3","human Subject#3, single 10 mg oral dose of [14C]-parent compound",62.8%
same,"% of Total Radioactivity in Plasma, Subject#4","human Subject#4, single 10 mg oral dose of [14C]-parent compound",72.2%
same,"% of Total Radioactivity in Plasma, Subject#5","human Subject#5, single 10 mg oral dose of [14C]-parent compound",69.6%
same,"% of Total Radioactivity in Plasma, Subject#6","human Subject#6, single 10 mg oral dose of [14C]-parent compound",68.3%
same,"% of Total Radioactivity in Plasma, Mean","mean of six human subjects, single 10 mg oral dose of [14C]-parent compound",65.2%
